This note sets out measurements from paper PMC12595434, “Development of retinoid nuclear receptor pathway antagonists through targeting aldehyde dehydrogenase 1A3” (iScience, 2025).

One series relates to T3-MCA sarcoma. The series can be described thus: T3-MCA syngeneic tumor growth. Type of series: in vivo, mouse. The note with it: MBE1.5-formulated diet 270 ppm (equivalent 40 mg/kg per day), by day 7 of treatment. On the procedure:
A considerable number of research efforts have attempted to generate retinoid nuclear receptor pathway antagonists, whether through targeting retinoid transport, the atRA synthetic enzymes, or by creating inverse agonists of the RAR/RXR nuclear receptors. […] Thus, mice were injected subcutaneously with T3-MCA sarcoma cells and were randomized by tumor size once tumors became palpable. One group received MBE1.5-formulated diet at 270 ppm (equivalent dose of 40 mg/kg body mass per day based on average food consumption), and the other group received control diet.
No statistical method was used to predetermine the number of animals needed across experiments. Xenograft experiments were conducted using 50k cells suspended in 10 μL PBS for mammary gland injection or 100k cells in 100 μL PBS for subcutaneous injection. Bioluminescent imaging (BLI) and tumor measurement was conducted as previously described.[78] IV/PO pharmacokinetic analysis of MBE1 and MBE1.5 was conducted on male CD-1 mice from Vital River that had been fasted for 4 h. Sampling was performed from either jugular puncture or tail-vein sampling using BD yellow-capped tubes for serum analysis or K2-EDTA tubes for hematology. Medicated feed was manufactured at Envigo using MBE1.5 powder with a final concentration of 270 ppm. Medicated diet was stored at 4°C for no longer than 6 months at a time.

Series [1] concerns panel of 23 human cancer cell lines. The series can be described thus: Aldefluor assay, panel of 23 human cancer cell lines. Type of series: cell-based. To be noted: 100 nM; most solid cancer types except liver cancer. On the procedure:
To determine the breadth of ALDH1A3 activity across human cancers and assess the target engagement of these discovered compounds across tumor models, we profiled a panel of 23 human cancer cell lines with the Aldefluor assay. […] Next, we assessed whether ALDH1A3 affects cell growth across this broad panel of cancer types by testing proliferation for each cell line with and without MBE1.5.
In addition, cells were suspended at a concentration of 100,000 cells per mL. Finally, DMSO was added to at 1% final in all cells to improve kinetics of the assay. For compound titrations, concentrated compound stock was added first to tubes and a uniform Aldefluor buffer containing the cell suspension was added to dilute to final volumes. Cells were analyzed by a BD LSRII for flow cytometry and were sorted using a FACSAria Fusion cell sorter (BD Biosciences) equipped with a 70 micron nozzle. Sample and sort collection tubes were kept at 4°C. […] DAPI was used as a live-dead indicator.

The nature of series [2]: 7-day repeat-dose study, oral gavage. Type of series: in vivo, mouse. The note with it: 50 mg/kg twice daily oral gavage. On the procedure:
In order to accommodate in vivo dosing and to also determine any potential toxic effects of MBE1.5, we performed a 7-day repeat-dose study administering a suspension of MBE1.5 at 50 mg/kg twice daily via oral gavage.
Finally, to establish a pharmacokinetic profile throughout dosing, MBE1.5 was analyzed in serum 12 h post dose on day 1 and day 7. […] To accommodate consistent plasma concentrations without accumulation, MBE1.5 was formulated to a lower concentration in mouse diet that would administer a dose equivalent to 25 mg/kg daily. This formulated diet was provided to mice for 5 days, at which point serum was analyzed for MBE1.5 concentration at 6:30 a.m. and 4:00 p.m. on day 5 to capture differences in mouse feeding cycles.
Figure S5. Specificity, tolerability and pharmacokinetic analysis of MBE1.5 in […]
MCF7 or SUM159 cells and a dose titration of MBE1.5 was performed against each cell line in the Aldelfuor assay to confirm ALDH1A3 isoform specificity for MBE1.5. n= 3 […]
proteome profiling in A375 cells was performed in DMSO and at two concentrations of MBE1 using a 10 temperature melting curve for isolation, followed by proteomic analysis, filtering and mapping peptide frequency as a composite melting curve, n=3 biological replicates per condition-temperature. […] ALDH1A3 or NPTN were assessed by WB to confirm the stabilization of ALDH1A3 but not NPTN (55kD, as indicated by arrow) by MBE1. […]
analysis of MBE1.5 following identification of proper formulations and administration to fasted male CD1 mice at 1 mg/kg intravenous (IV) and 10 mg/kg oral gavage (PO). n = 3 mice per arm. G-I, MBE1.5 administered as a suspension to C57BL/6 male mice via bi-daily PO administration for seven days as compared to the vehicle was tracked for body weight (G), complete blood count at day 7 (H) and plasma concentrations of MBE1.5 were analyzed at 12 hours post Day 1 dosing and 12 hours following the last dose (I). n = 4 male mice per arm. […] Upon acclimation, serum MBE1.5 concentrations were calculated following blood draws at 6:30 am and 4 pm. n = 5 mice per arm. […]

In another series the target is 5HT1a (Homo sapiens, UniProt P08908). The series can be described thus: Off-target profiling panel. It counts as binding. The note with it: read-out: Inhibition by MBE1 at 10 μM (%).
The next series has as its target 5HT2B (Homo sapiens, UniProt P41595). The series can be described thus: Off-target profiling panel. Type of series: binding. The note with it: read-out: Inhibition by MBE1 at 10 μM (%).
In a further series the target is M3 (Homo sapiens, UniProt P20309). The series can be described thus: Off-target profiling panel. It counts as binding. To be noted: read-out: Inhibition by MBE1 at 10 μM (%).
The next series concerns the target T1, MARCKSL1 (Homo sapiens, UniProt P49006).
T1 construct: Treated A375 cells were harvested from 10 × 15 cm plates; endogenous in cells; host or cells: A375 melanoma cells
The series can be described thus: Thermal proteome profiling (TPP) in A375 cells. To be noted: MARCKSL1, 1 uM. Type of series: cell-based.

For the next series, the system named is MDA-MB-468 cells. The note with it: MDA-MB-468, 24 hour incubation, highest tested dose 10 μM.
The target in the next series is hERG (Homo sapiens, UniProt Q12809). The series can be described thus: Off-target profiling panel. It counts as binding. To be noted: read-out: Inhibition by MBE1 at 10 μM (%).
The next series deals with 5HT1B (Homo sapiens, UniProt P28222). The series can be described thus: Off-target profiling panel. It counts as binding. To be noted: read-out: Inhibition by MBE1 at 10 μM (%).
For another series, the target named is PDE3A (Homo sapiens, UniProt Q14432). The series can be described thus: Off-target profiling panel. It counts as biochemical.
Chain of PDE3A (Q14432 whole entry): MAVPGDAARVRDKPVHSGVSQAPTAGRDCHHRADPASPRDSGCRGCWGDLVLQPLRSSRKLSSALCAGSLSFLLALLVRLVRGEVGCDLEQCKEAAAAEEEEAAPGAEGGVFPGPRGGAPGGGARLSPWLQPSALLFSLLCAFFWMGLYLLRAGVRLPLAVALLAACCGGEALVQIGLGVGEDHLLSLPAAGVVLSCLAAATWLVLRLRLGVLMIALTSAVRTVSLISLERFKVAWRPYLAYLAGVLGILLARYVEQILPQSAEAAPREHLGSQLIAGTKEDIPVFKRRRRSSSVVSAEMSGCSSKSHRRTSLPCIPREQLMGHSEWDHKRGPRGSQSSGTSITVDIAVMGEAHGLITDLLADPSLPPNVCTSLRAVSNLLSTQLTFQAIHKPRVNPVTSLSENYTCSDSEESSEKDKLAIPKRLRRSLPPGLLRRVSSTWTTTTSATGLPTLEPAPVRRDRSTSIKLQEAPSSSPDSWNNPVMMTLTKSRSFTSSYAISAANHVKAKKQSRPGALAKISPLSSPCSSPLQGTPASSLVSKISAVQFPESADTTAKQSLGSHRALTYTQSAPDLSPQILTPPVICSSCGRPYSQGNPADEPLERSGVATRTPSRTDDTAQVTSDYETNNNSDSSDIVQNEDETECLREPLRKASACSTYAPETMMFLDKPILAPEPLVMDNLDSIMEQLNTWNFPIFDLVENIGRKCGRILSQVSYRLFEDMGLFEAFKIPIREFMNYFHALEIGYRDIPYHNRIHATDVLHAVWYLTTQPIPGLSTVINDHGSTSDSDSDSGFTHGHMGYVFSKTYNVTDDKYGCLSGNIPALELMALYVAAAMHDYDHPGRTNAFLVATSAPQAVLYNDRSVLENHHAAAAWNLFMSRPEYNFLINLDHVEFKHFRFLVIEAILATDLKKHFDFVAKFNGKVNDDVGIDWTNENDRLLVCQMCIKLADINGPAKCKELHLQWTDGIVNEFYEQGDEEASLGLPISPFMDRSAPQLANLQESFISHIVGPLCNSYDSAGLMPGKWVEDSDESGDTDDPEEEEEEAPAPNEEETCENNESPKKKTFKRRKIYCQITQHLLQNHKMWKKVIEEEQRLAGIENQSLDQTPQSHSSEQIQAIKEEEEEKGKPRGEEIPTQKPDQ

Chain of 5HT1a (P08908 whole entry): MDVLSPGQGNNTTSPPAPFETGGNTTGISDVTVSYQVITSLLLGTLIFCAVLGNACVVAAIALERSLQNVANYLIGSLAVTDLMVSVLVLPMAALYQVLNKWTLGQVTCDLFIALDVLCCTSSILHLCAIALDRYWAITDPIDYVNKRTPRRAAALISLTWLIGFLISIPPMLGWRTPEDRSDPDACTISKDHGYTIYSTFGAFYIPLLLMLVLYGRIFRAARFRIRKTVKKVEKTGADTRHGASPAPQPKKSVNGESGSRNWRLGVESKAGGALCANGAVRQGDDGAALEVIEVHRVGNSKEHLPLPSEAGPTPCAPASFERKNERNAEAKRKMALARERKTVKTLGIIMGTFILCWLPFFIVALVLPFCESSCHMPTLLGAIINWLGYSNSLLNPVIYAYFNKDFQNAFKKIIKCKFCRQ
Chain of 5HT1B (P28222 whole entry): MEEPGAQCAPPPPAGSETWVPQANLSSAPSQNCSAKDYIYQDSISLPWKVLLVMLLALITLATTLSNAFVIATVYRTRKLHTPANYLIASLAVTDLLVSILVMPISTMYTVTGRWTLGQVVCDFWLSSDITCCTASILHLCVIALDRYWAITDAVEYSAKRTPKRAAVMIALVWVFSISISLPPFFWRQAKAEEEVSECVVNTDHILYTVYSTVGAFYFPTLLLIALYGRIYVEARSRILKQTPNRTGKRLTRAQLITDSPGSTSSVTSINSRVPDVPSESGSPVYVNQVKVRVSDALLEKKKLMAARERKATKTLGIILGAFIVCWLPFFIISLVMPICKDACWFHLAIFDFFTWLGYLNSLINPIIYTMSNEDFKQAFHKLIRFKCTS
T1 sequence (P49006 whole entry): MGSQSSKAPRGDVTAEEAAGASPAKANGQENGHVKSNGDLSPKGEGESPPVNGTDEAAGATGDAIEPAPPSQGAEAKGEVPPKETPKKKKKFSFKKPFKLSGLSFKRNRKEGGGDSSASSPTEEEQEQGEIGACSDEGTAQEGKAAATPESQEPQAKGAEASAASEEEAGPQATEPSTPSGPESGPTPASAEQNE
Chain of 5HT2B (P41595 whole entry): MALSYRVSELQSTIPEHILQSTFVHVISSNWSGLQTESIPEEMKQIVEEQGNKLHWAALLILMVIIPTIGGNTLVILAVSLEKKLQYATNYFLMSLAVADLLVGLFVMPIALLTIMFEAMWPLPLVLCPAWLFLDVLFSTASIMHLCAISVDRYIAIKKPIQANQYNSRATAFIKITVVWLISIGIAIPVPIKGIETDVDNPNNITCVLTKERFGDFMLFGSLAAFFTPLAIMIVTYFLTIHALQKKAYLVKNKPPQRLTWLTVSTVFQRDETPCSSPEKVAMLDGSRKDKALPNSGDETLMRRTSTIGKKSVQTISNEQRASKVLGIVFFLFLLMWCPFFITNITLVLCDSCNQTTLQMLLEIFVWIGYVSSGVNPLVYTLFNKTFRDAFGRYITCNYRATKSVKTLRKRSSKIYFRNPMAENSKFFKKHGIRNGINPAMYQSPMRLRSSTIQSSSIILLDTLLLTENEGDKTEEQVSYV
Chain of hERG (Q12809 whole entry): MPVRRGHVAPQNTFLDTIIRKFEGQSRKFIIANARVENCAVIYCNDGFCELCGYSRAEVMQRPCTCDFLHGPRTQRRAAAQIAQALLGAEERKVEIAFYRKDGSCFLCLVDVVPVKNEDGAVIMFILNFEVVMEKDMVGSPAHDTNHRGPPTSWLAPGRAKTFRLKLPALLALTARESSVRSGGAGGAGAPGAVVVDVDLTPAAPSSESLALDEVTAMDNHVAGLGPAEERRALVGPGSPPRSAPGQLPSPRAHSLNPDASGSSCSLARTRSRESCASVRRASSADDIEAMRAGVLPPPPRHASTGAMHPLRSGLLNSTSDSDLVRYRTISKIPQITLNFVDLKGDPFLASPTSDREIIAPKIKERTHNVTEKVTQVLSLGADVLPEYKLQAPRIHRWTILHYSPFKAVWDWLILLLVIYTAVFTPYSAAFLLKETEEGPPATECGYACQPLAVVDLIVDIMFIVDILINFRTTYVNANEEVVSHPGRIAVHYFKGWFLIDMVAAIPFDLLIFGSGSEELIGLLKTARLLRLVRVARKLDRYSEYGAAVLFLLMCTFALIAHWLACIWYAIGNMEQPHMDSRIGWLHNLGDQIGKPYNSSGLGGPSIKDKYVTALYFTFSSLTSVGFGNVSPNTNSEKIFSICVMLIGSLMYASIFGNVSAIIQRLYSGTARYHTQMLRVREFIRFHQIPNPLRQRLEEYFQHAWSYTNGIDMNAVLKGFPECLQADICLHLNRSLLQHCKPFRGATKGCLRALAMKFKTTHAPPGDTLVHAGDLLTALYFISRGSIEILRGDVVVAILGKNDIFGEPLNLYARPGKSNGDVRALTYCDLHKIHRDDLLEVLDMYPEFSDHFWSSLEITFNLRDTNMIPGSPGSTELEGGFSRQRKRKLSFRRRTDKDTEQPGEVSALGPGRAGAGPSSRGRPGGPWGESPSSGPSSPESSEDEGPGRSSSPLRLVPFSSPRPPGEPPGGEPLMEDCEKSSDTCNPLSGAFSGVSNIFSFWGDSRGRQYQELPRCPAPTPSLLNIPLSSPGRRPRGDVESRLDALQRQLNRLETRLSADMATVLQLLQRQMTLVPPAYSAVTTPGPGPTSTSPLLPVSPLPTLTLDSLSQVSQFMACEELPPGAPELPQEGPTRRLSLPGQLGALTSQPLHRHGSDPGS
Chain of M3 (P20309 whole entry): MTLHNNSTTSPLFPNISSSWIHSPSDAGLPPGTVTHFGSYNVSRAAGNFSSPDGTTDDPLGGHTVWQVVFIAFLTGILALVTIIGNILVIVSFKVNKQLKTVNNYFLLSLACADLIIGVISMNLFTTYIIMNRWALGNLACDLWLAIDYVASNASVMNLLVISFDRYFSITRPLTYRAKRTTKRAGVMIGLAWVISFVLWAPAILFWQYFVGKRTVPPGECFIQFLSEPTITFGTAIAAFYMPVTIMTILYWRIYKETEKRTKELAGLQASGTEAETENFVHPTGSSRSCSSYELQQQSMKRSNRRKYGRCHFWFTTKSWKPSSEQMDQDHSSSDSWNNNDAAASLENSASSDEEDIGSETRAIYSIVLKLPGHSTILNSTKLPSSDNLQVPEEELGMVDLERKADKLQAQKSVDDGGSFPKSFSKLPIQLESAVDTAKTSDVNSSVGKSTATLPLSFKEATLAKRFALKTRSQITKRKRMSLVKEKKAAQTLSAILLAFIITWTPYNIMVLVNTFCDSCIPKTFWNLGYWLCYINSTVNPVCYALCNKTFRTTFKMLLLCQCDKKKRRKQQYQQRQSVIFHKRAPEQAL

Consider `CCc1ccccc1C(=O)Nc1cc2c(cc1F)NC(=O)CC2` [MBE1.5, 2-ethyl-N-(7-fluoro-2-oxo-3,4-dihydro-1H-quinolin-6-yl)benzamide], for which the “tumor growth (in words)” value in the series on T3-MCA sarcoma was “dramatically reduced tumor growth”. Besides, in series [1], the “inhibition of Aldefluor activity across cancer cell line panel (in words)” value was “potently inhibited Aldefluor activity”. Moreover, the “serum level 12 h post dose, day 1 vs day 7 (in words)” value in series [2] is given as “accumulated”. The “body weight vs vehicle (in words)” value in [2] (7 days, C57BL/6 male mice) was “no difference”. The “blood profile (complete blood count) vs vehicle (in words)” value in [2] (day 7) is on record as “no detectable difference”.
As a reminder, the inhibition is the change of the read-out against control, counted positive when it falls. `CCc1cnccc1C(=O)Nc1cc2c(cc1F)NC(=O)CC2` [MBE1, 3-ethyl-N-(7-fluoro-2-oxo-3,4-dihydro-1H-quinolin-6-yl)pyridine-4-carboxamide]: the inhibition at 10 µM at 5HT1a is 3.78%; on 5HT2B it was -6.81%; on M3, -13.4%; at hERG, -28.1%; at 5HT1B, 5.26%; at PDE3A (read-out: Inhibition by MBE1 at 10 μM (%)), 75.8%. Also, at MARCKSL1, the “1uM MBE1 Tm” value worked out at 64. Further, the “nonspecific cytotoxicity (in words)” value in the series on MDA-MB-468 cells is reported as “nontoxic”. For the same compound, on PDE3A (screen against 44 off-target proteins), the “concentration for PDE3α interaction as multiple of IC50 against ALDH1A3” value is recorded as > 100 fold.
